The source of these data is patent US9090601B2, “Thiazole derivatives” (Millennium Pharmaceuticals, Inc., priority 2009, dated 2015).

Bounds are passed on as bounds.

The target of test [1] is T1, hPI3Kα (p110alpha catalytic subunit and human p85alpha regulatory subunit complex) (Homo sapiens, UniProt P42336).
T1 construct: made in house; host or cells: Sf21 insect cells (baculovirus, Bac-to-Bac)
The test is described as follows: Human PI3Kα enzyme assay (Phospholipid FlashPlate, γ-[33P] ATP). It counts as biochemical. The note with it: PI3Kα enzyme activity, compound at 1.0 μm, 500 nM ATP. The method, then: hPIK3CA; p110alpha catalytic subunit (GenBank ACCESSION# NM_006218) and hPIK3R1; p85alpha regulatory subunit (GenBank ACCESSION# NM_181523) are cloned from human cDNA library (Clonetec).
Human p110alpha catalytic subunit gene and human p85alpha regulatory subunit gene are respectively inserted into pFASTBacHT (Invitrogen), and each gene was introduced into a baculovirus vector using a Bac-to-Bac system (Invitrogen). Both viruses are injected to insect cultured cells Sf21 to allow coexpression of proteins. p110alpha catalytic subunit and human p85alpha regulatory subunit complex (hPI3Kα) are purified from the cell extract using a Ni chelate column.
L-alpha-Phosphatidyl-D-myo-inositol 4,5-Diphosphate (diC16) [PI(4,5)P2, Wako Pure Chemical Industries, Ltd.] is suspended in Phospholipid FlashPlate Coating Buffer (PerkinElmer) and applied onto Phospholipid FlashPlate PLUS. PI3K reaction buffer (50 mM Tris-HCl, pH 7.4, 5 mM MgCl2, 1 mM DTT, 0.005% BSA) containing hPI3Kα, γ-[^33P] ATP (PerkinElmer) and cold 500 nM ATP is added to the wells on this plate and the mixture is reacted at room temperature for 1 hr. 50 mM EDTA solution is added to quench the reaction, and the wells are washed with PBS. The radioactivity remaining in the well is measured as enzyme activity by TopCount (PerkinElmer).

For a further test, the target named is T2, PI3Kalpha (Homo sapiens, UniProt P42336).
T2 construct: His (N); host or cells: baculovirus expression system (insect cells)
T2 sequence (P42336 whole entry): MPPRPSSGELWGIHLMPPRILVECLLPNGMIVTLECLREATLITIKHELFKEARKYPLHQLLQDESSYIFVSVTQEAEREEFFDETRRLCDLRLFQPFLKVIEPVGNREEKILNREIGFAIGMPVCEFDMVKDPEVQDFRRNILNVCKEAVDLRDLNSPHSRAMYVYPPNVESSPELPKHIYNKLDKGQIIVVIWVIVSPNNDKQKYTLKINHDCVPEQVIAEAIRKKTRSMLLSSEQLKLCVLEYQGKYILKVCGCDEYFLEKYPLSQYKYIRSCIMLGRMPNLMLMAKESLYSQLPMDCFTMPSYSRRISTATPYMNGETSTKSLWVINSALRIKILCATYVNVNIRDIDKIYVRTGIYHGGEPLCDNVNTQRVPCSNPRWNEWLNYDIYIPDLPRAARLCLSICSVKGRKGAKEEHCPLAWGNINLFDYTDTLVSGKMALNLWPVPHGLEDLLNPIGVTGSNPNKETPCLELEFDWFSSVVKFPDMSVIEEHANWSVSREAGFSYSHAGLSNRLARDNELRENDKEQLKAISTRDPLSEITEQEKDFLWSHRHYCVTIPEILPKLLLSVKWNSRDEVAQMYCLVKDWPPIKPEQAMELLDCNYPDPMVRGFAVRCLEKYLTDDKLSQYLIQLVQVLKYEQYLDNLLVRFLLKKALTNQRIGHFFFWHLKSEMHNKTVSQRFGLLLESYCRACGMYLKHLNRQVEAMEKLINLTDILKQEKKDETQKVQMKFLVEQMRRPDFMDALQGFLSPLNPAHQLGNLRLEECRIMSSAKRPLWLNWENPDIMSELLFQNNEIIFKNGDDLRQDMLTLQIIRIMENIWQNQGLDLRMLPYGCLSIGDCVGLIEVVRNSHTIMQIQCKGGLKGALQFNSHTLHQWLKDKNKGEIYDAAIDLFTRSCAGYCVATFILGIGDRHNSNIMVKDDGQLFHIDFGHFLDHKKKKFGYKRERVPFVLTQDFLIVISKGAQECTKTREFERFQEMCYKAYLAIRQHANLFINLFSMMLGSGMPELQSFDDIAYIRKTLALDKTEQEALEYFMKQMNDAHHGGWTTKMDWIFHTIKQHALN
T2 sequence (P27986 whole entry partner): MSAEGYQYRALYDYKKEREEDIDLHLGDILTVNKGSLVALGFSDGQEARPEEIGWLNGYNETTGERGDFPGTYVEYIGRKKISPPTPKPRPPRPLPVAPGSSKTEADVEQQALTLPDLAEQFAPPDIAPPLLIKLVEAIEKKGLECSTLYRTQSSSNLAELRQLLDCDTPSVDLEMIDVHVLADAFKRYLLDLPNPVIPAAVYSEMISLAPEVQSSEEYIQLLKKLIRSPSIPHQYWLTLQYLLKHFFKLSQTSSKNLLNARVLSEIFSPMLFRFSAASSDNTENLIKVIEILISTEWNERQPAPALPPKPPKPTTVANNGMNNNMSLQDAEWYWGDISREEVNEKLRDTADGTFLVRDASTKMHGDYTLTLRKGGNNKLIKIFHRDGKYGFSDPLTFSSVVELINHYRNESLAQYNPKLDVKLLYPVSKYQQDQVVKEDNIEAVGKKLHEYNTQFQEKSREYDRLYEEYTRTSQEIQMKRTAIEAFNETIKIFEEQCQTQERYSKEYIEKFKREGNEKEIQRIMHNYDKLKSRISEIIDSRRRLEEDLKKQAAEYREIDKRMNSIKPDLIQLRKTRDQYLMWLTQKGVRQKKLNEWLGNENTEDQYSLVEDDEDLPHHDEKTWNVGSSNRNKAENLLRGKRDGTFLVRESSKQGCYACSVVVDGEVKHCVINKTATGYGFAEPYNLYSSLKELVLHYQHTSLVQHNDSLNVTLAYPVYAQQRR
The test is described as follows: PI3K alpha enzyme assay (HTRF). The note with it: PI3Kalpha 0.4875 nM, ATP 25 uM, di-C8 PI(4,5)P2 3.5 uM, 30 min room temperature; read-out: IC50 (inhibit PI3Kalpha). It counts as biochemical. The method, then: 0.5 uL compounds in DMSO are added to wells of a 384 well microtitre plate (Corning 3575). At room temperature: 10 ul PI3K reaction buffer (50 mM Hepes, 5 mM DTT, 150 mM NaCl, 10 mM beta-glycerophosphate, 10 mM MgCl2, 0.25 mM sodium cholate and 0.001% CHAPS, pH 7.00) containing ATP (25 uM, Promega) is added followed immediately by 10 ul PI3K reaction buffer containing di-C8 PI(4,5)P2 (3.5 uM, CellSignals) and PI3Kalpha (0.4875 nM, Millennium Protein Sciences Group) and the mixture is incubated with shaking at room temperature for 30 minutes. Then 5 ul PI3K stop mix (50 mM Hepes, 5 mM DTT, 150 mM NaCl, 0.01% Tween-20, 15 mM EDTA and 25 nM biotin-PI(3,4,5)P3 (Echelon) is added to quench the reaction followed immediately by addition of 5 ul HTRF detection mix (50 mM Hepes, 5 mM DTT, 150 mM NaCl, 0.01% Tween-20, 40 mM KF, 10 nM GST:GRP-1 PH domain (Millennium Protein Sciences Group), 15 nM Streptavidin-XL (CisBio) and 0.375 nM anti-GST Eu++ antibody (CisBio) at pH 7.00). The plates are then incubated for 1 hour at room temperature with shaking and then read on a BMG PheraStar Plus reader.
(TR-FRET usually uses a lanthanide donor and a delayed reading to cut background.)

T1 sequence (P42336 whole entry): as the sequence (P42336 whole entry) above
T1 sequence (P27986 whole entry partner): as the sequence (P27986 whole entry partner) above

For the compound `Cc1nn2ccsc2c1-c1nc(-c2ccccc2)c(-c2nnc[nH]2)s1` [Example 35-B, 6-methyl-7-[4-phenyl-5-(4H-1,2,4-triazol-3-yl)-1,3-thiazol-2-yl]pyrazolo[5,1-b][1,3]thiazole acetate], the “Inhibitory rate at 1.0 μm (%)” value in test [1] turned out to be 101%.

For orientation: IC50 means the concentration that gives 50% inhibition. Consider `CC(=O)Nc1cc(-c2nc(-c3ccccc3Cl)c(C(=O)NC[C@@H](C)O)s2)ccn1` [Example 4-C], for which the IC50 at PI3Kalpha is over 1000 nM.

As to `COc1cnc(NC(C)=O)cc1-c1nc(-c2ccc(Cl)cc2Cl)c(-c2ncc[nH]2)s1` [Example 18-C], the IC50 on PI3Kalpha is over 1000 nM.

`CCOc1nc(-c2ccnc(NC(=O)C3CCCCC3)c2)sc1-c1nnc[nH]1` [Example 50-B, N-{4-[4-ethoxy-5-(4H-1,2,4-triazol-3-yl)-1,3-thiazol-2-yl]pyridin-2-yl}cyclohexanecarboxamide]: the IC50 on PI3Kalpha is over 1000 nM.

As for `CC(=O)Nc1cccc(-c2nc(-c3ccnc(NC(C)=O)c3)sc2-c2ncc[nH]2)c1` [Example 72-C], at PI3Kalpha, the IC50 is over 1000 nM.

For `CC(=O)Nc1cc(-c2nc(Br)c(-c3ncc[nH]3)s2)ccn1` [Example 58-C], on PI3Kalpha, the IC50 is over 1000 nM.

On to `CC(=O)Nc1cc(-c2nc(-c3ccncc3)c(-c3ncc[nH]3)s2)ccn1` [Example 27-C], for which the IC50 at PI3Kalpha is over 1000 nM.

For `CCOc1nc(-c2ccnc(NC(=O)c3c(F)cccc3F)c2)sc1-c1nnc[nH]1` [Example 71-B, N-{4-[4-ethoxy-5-(4H-1,2,4-triazol-3-yl)-1,3-thiazol-2-yl]pyridin-2-yl}-2,6-difluorobenzamide], the IC50 at PI3Kalpha is over 1000 nM.

For the compound `CC(=O)Nc1cc(-c2nc(-c3ccc(OC(C)C)cc3)c(-c3ncc[nH]3)s2)ccn1` [Example 46-C], the IC50 at PI3Kalpha is over 1000 nM.

Regarding `COc1cccc(OC)c1-c1nc(-c2c(C)nn3ccccc23)sc1-c1nc[nH]n1` [Example 102-B, 3-[4-(2,6-dimethoxyphenyl)-5-(1H-1,2,4-triazol-3-yl)-1,3-thiazol-2-yl]-2-methylpyrazolo[1,5-a]pyridine], at PI3Kalpha, the IC50 was over 1000 nM.

As to `Cc1nn2c(c1-c1nc(C3CCCCC3)c(-c3nnc[nH]3)s1)CCCC2` [Example 19-B, 3-[4-cyclohexyl-5-(4H-1,2,4-triazol-3-yl)-1,3-thiazol-2-yl]-2-methyl-4,5,6,7-tetrahydropyrazolo[1,5-a]pyridine], the IC50 at PI3Kalpha is over 1000 nM.

Take `CC(=O)Nc1cc(-c2nc(-c3c(C)cccc3C)c(-c3nnc[nH]3)s2)ccn1` [Example 56-C, N-{4-[4-(2,6-dimethylphenyl)-5-(4H-1,2,4-triazol-3-yl)-1,3-thiazol-2-yl]pyridin-2-yl}acetamide]: the IC50 at PI3Kalpha was over 1000 nM.

In the case of `CC(=O)Nc1cc(-c2nc(-c3ccc(F)c(CO)c3)c(-c3ncc[nH]3)s2)ccn1` [Example 47-C], the IC50 on PI3Kalpha is over 1000 nM.

For the compound `CC(=O)Nc1cc(-c2nc(-c3ccccc3Cl)c(-c3ncc[nH]3)s2)c(C)cn1` [Example 30-C], the IC50 on PI3Kalpha was over 1000 nM.

Consider `C=CCOc1nc(-c2c(C)nn3ccccc23)sc1-c1nnc[nH]1` [Example 27-B, 2-methyl-3-[4-(prop-2-en-1-yloxy)-5-(4H-1,2,4-triazol-3-yl)-1,3-thiazol-2-yl]pyrazolo[1,5-a]pyridine], for which the “Inhibitory rate at 1.0 μm (%)” value in test [1] turned out to be 100%.

With `CCOc1nc(-c2ccnc(NC(=O)c3ccccc3Cl)c2)sc1-c1nnc[nH]1` [Example 54-B, 2-chloro-N-{4-[4-ethoxy-5-(4H-1,2,4-triazol-3-yl)-1,3-thiazol-2-yl]pyridin-2-yl}benzamide], the IC50 at PI3Kalpha was over 1000 nM.

Turning to `Cc1nc2cccnn2c1-c1nc(-c2ccccc2)c(-c2nnc[nH]2)s1` [Example 41-B, 2-methyl-3-[4-phenyl-5-(4H-1,2,4-triazol-3-yl)-1,3-thiazol-2-yl]imidazo[1,2-b]pyridazine], at PI3Kalpha, the IC50 was over 1000 nM.

For the compound `CC(=O)Nc1cc(-c2nc(-c3ccc(Oc4ccccc4)cc3)c(-c3ncc[nH]3)s2)ccn1` [Example 60-C], the IC50 on PI3Kalpha was over 1000 nM.

Take `COc1ccc(-c2nc(-c3ccnc(NC(C)=O)c3)sc2-c2ncc[nH]2)cc1OC` [Example 16-C]: the half-inhibitory concentration (IC50) on PI3Kalpha is over 1000 nM.

As to `CC(=O)Nc1cc(-c2nc(-c3cccc(-n4cccn4)c3)c(-c3ncc[nH]3)s2)ccn1` [Example 14-C], the IC50 at PI3Kalpha was over 1000 nM.

For `COCCNC(=O)c1sc(-c2ccnc(NC(C)=O)c2)nc1-c1ccccc1Cl` [Example 64-C], on PI3Kalpha, the IC50 is over 1000 nM.

For `CC(=O)Nc1cc(-c2nc(-c3ccccc3Cl)c(-c3nnc[nH]3)s2)c(C)cn1` [Example 65-C], the IC50 on PI3Kalpha is over 1000 nM.

For the compound `CCOc1nc(-c2ccnc(NC(=O)C(C)(C)C)c2)sc1-c1nnc[nH]1` [Example 66-B, N-{4-[4-ethoxy-5-(4H-1,2,4-triazol-3-yl)-1,3-thiazol-2-yl]pyridin-2-yl}-2,2-dimethylpropanamide], at PI3Kalpha, the IC50 was over 1000 nM.

For the compound `CC(=O)Nc1cc(-c2nc(-c3ccccc3)c(-c3ncc[nH]3)s2)c(C)cn1` [Example 36-C], on PI3Kalpha, the IC50 was over 1000 nM.

For the compound `CC(=O)Nc1cc(-c2nc(-c3ccccc3Cl)c(C(=O)NCCO)s2)ccn1` [Example 48-C, 2-[2-(acetylamino)pyridin-4-yl]-4-(2-chlorophenyl)-N-(2-hydroxyethyl)-1,3-thiazole-5-carboxamide], the IC50 at PI3Kalpha was over 1000 nM.

Turning to `COc1ccc(-c2nc(-c3ccnc(NC(C)=O)c3)sc2-c2ncc[nH]2)cc1` [Example 62-C], the IC50 at PI3Kalpha is over 1000 nM.

Consider `Cc1nn2ccc(OCCN3CCCCC3)cc2c1-c1nc(-c2ccccc2)c(-c2nnc[nH]2)s1` [Example 32-B, 2-methyl-3-[4-phenyl-5-(4H-1,2,4-triazol-3-yl)-1,3-thiazol-2-yl]-5-(2-piperidin-1-ylethoxy)pyrazolo[1,5-a]pyridine di-p-toluenesulfonate], for which, in test [1], the “Inhibitory rate at 1.0 μm (%)” value is given as 100%.

Turning to `CC(=O)Nc1cc(-c2nc(-c3ccc(-c4nnc(C)o4)cc3)c(-c3ncc[nH]3)s2)ccn1` [Example 8-C], on PI3Kalpha, the IC50 was over 1000 nM.

With `CCOc1nc(-c2ccnc(NC(=O)c3ccncc3)c2)sc1-c1nnc[nH]1` [Example 67-B, N-{4-[4-ethoxy-5-(4H-1,2,4-triazol-3-yl)-1,3-thiazol-2-yl]pyridin-2-yl}pyridine-4-carboxamide], the IC50 at PI3Kalpha was over 1000 nM.

As to `CCOc1nc(-c2ccnc(NC(=O)c3ccccn3)c2)sc1-c1nnc[nH]1` [Example 49-B, N-{4-[4-ethoxy-5-(4H-1,2,4-triazol-3-yl)-1,3-thiazol-2-yl]pyridin-2-yl}pyridine-2-carboxamide], the IC50 on PI3Kalpha is over 1000 nM.

As for `CCOc1nc(-c2ccnc(NC(=O)c3ccccc3C)c2)sc1-c1nnc[nH]1` [Example 68-B, N-{4-[4-ethoxy-5-(4H-1,2,4-triazol-3-yl)-1,3-thiazol-2-yl]pyridin-2-yl}-2-methylbenzamide], the IC50 at PI3Kalpha is over 1000 nM.

With `CCOc1nc(-c2ccnc(NC(=O)c3sccc3C)c2)sc1-c1nnc[nH]1` [Example 52-B, N-{4-[4-ethoxy-5-(4H-1,2,4-triazol-3-yl)-1,3-thiazol-2-yl]pyridin-2-yl}-3-methylthiophene-2-carboxamide], the IC50 at PI3Kalpha was over 1000 nM.
